This passage reports pKa results from patent US11077042B2, “Liquid hair dye composition” (KAO CORPORATION, priority 2017, dated 2021).

The nature of the data set: pKa of the azo dye. The data set is classed as physicochemical. As to conditions: assumes blue color by proton dissociation. The text has this:
The liquid hair dye composition of the present invention contain, as component (A), an azo dye represented by Formula (A-2) below (HC Blue 18). The pKa of the azo dye (A-2) is 6.0, and assumes blue color by proton dissociation.

For orientation: pKa means the pH at which an ionisable group is half protonated. Higher therefore signals a group that holds its proton tightly.

Turning to `NS(=O)(=O)c1ccc2nsc(N=Nc3ccc(O)c(Cl)c3)c2c1` [Example A-2, HC Blue 18], the pKa was 6.
